# From patent publication US10017503B2, “Compounds, compositions, and methods for increasing CFTR activity” (Proteostasis Therapeutics, Inc., priority 2014, dated 2018)
# Molecular target: T1, ΔF508-CFTR (Homo sapiens, UniProt P13569, DEL508-508)
# T1 construct: Primary lung epithelial cells homozygous for the Cystic Fibrosis-causing ΔF508 mutation were differentiated for a minimum of 4 weeks; endogenous in cells; host or cells: primary lung (bronchial) epithelial cells (hBE) homozygous for ΔF508, differentiated at an air-liquid interface
# Experiment: hBE equivalent current (Ieq) assay
# Type: cell-based
# Conditions: AUC of equivalent chloride current as % of VX-809 (1 uM); compound at 10 uM and VX-809 at 1 uM; primary hBE cells homozygous ΔF508, 24 h treatment
# Protocol: ii. hBE Equivalent Current (Ieq) Assay Primary lung epithelial cells homozygous for the Cystic Fibrosis-causing ΔF508 mutation were differentiated for a minimum of 4 weeks in an air-liquid interface on Costar 24 well HTS filter plates prior to the equivalent current (Ieq) measurements. Cells were apically mucus-washed for 30 minutes 24 h prior to treatment with compounds. The basolateral media was removed and replaced with media containing the compound of interest diluted to its final concentration from DMSO stocks. Treated cells were incubated at 37° C. and 5% CO2 for 24 hours. At the end of the treatment period, the media was changed to the Ieq experimental solution for 30 minutes before the experiment and plates are maintained in a CO2-free incubator during this period. The plates containing the cells were then placed in pre-warmed heating blocks at 36° C.±0.5 for 15 minutes before measurements are taken. The transepithelial voltage (VT) and conductance (GT) were measured using a custom 24 channel current clamp (TECC-24) with 24 well electrode manifold. The Ieq assay measurements were made following additions with standardized time periods: 1. The baseline VT and GT values were measured for approximately 20 minutes. 2. Benzamil was added to block ENaC for 15 minutes. 3. Forskolin plus VX-770 were added to maximally activate ΔF508-CFTR for 27 minutes. 4. Bumetanide was added to inhibit the NaK2Cl cotransporter and shut-off secretion of chloride. The activity data captured was the area under the curve (AUC) for the traces of the equivalent chloride current. The AUC was collected from the time of the forskolin/VX-770 addition until the inhibition by bumetanide addition. Correction in response to compound treatment was scored as the increase in the AUC for compound-treated samples over that of vehicle-treated samples. (** indicates activity ≥200% of VX-809 (1 uM) with compound at 10 uM and VX-809 at 1 uM; * indicates activity 100-200% of VX-809 (1 uM) with compound at 10 uM and VX-809 at 1 uM. ^## indicates activity ≥200% of VX-809 (3 uM) with compound at 10 uM and VX-809 at 3 uM; ^# indicates activity 100-200% of VX-809 (3 uM) with compound at 10 uM and VX-809 at 3 uM.
# T1 sequence (P13569 with tags, fused parts or gaps DEL508-508): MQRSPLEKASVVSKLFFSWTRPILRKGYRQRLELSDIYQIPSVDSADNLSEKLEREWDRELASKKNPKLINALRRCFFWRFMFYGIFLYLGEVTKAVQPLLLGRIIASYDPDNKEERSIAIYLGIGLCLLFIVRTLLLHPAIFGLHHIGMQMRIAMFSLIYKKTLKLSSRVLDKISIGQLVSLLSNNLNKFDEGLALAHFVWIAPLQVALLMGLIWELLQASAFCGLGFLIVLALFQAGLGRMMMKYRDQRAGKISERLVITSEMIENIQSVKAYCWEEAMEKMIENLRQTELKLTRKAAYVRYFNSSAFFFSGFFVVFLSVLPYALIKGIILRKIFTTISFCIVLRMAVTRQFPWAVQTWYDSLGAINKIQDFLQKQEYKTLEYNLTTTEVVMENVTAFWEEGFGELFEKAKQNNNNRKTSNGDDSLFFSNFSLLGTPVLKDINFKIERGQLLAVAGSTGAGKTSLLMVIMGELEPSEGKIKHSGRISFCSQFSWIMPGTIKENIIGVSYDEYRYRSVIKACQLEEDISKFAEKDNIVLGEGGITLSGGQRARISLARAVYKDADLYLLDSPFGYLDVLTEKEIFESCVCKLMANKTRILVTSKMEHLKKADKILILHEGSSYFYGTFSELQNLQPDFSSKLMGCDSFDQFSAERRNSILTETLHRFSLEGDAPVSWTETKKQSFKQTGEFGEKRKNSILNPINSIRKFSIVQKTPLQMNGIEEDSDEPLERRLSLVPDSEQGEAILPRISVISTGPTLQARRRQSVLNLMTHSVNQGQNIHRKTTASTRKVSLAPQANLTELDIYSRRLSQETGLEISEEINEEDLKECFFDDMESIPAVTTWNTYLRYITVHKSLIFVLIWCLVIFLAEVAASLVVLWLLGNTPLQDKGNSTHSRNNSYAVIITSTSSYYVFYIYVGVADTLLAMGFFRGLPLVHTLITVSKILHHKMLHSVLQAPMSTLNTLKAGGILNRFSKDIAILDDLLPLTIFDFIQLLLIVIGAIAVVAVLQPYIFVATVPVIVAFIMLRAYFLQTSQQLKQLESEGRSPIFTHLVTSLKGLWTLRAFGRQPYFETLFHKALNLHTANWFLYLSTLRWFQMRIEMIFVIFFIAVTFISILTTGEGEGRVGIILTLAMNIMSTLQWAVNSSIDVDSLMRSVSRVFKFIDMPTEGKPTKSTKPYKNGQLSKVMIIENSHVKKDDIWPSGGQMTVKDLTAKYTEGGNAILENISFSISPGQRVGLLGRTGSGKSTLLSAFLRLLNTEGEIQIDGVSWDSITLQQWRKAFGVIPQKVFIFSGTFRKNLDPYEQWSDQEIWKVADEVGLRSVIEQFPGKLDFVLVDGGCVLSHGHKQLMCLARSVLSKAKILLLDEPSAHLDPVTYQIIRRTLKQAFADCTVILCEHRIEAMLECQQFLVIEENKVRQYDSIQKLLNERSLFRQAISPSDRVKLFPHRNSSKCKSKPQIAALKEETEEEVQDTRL
smiles,measurement,value
"COCn1ccnc1S(=O)(=O)N(C)CCCNC(=O)c1cc(-c2ccccc2)on1 [Compound B11, N-(3-((1-(methoxymethyl)-N-methyl-1H-imidazole)-2-sulfonamido)propyl)-5-phenylisoxazole-3-carboxamide]",Ieq activity,** (activity ≥200% of VX-809 (1 uM) with compound at 10 uM and VX-809 at 1 uM)
"CC(O)c1nnc(NS(=O)(=O)CCNC(=O)c2cc(-c3ccccc3)on2)s1 (stereo in doubt) [Compound B8, (S)—N-(2-(N-(5-(1-hydroxyethyl)-1,3,4-thiadiazol-2-yl)sulfamoyl)ethyl)-5-phenylisoxazole-3-carboxamide]",Ieq activity,* (activity 100-200% of VX-809 (1 uM) with compound at 10 uM and VX-809 at 1 uM)
"CN(CCCNC(=O)c1cc(-c2ccccc2)on1)S(=O)(=O)c1nccn1C [Compound B10, N-(3-((N-1-dimethyl-1H-imidazole)-2-sulfonamido)propyl)-5-phenylisoxazole-3-carboxamide]",Ieq activity,* (activity 100-200% of VX-809 (1 uM) with compound at 10 uM and VX-809 at 1 uM)
"O=C(NCCCNS(=O)(=O)c1ccccn1)c1cc(-c2ccccc2)on1 [Compound B6, 5-phenyl-N-(3-(pyridine-2-sulfonamido)propyl)isoxazole-3-carboxamide]",Ieq activity,** (activity ≥200% of VX-809 (1 uM) with compound at 10 uM and VX-809 at 1 uM)
"O=C(NCCNS(=O)(=O)c1cc(CO)n[nH]1)c1cc(-c2ccccc2)on1 [Compound B3, N-(2-((3-(hydroxymethyl)-1H-pyrazole)-5-sulfonamido)ethyl)-5-phenylisoxazole-3-carboxamide]",Ieq activity,* (activity 100-200% of VX-809 (1 uM) with compound at 10 uM and VX-809 at 1 uM)
O=C(NCCCNS(=O)(=O)c1ncc[nH]1)c1cc(-c2ccccc2)on1 [Compound B1],Ieq activity,** (activity ≥200% of VX-809 (1 uM) with compound at 10 uM and VX-809 at 1 uM)
"O=C(NCCCNS(=O)(=O)c1ncccn1)c1cc(-c2ccccc2)on1 [Compound B5, 5-phenyl-N-(3-(pyrimidine-2-sulfonamido)propyl)isoxazole-3-carboxamide]",Ieq activity,** (activity ≥200% of VX-809 (1 uM) with compound at 10 uM and VX-809 at 1 uM)
"Nc1cc(CO)nn1S(=O)(=O)CCNC(=O)c1cc(-c2ccccc2)on1 [Compound B7, N-(2-((5-amino-3-(hydroxymethyl)-1H-pyrazol-1-yl)sulfonyl)ethyl)-5-phenylisoxazole-3-carboxamide]",Ieq activity,* (activity 100-200% of VX-809 (1 uM) with compound at 10 uM and VX-809 at 1 uM)
"O=C(NCCCNS(=O)(=O)c1cc(CO)n[nH]1)c1cc(-c2ccccc2)on1 [Compound B4, N-(3-((3-(hydroxymethyl)-1H-pyrazole)-5-sulfonamido)propyl)-5-phenylisoxazole-3-carboxamide]",Ieq activity,** (activity ≥200% of VX-809 (1 uM) with compound at 10 uM and VX-809 at 1 uM)
"CC(O)c1nnc(NS(=O)(=O)CCNC(=O)c2cc(-c3ccccc3)on2)s1 (stereo in doubt) [Compound B9, (R)—N-(2-(N-(5-(1-hydroxyethyl)-1,3,4-thiadiazol-2-yl)sulfamoyl)ethyl)-5-phenylisoxazole-3-carboxamide]",Ieq activity,* (activity 100-200% of VX-809 (1 uM) with compound at 10 uM and VX-809 at 1 uM)
"CN(CCCNC(=O)c1cc(-c2ccccc2)on1)S(=O)(=O)c1ncc[nH]1 [Compound B2, N-(3-(N-methyl-1H-imidazole-2-sulfonamido)propyl)-5-phenylisoxazole-3-carboxamide]",Ieq activity,** (activity ≥200% of VX-809 (1 uM) with compound at 10 uM and VX-809 at 1 uM)
